Results: patent publication USRE38551E1, “Anticonvulsant enantiomeric amino acid derivatives” (priority 1996, dated 2004)

Assays:
[1] = system: maximal electroshock (MES) induced seizure; test: 5-day chronic treatment tolerance study (MES test); assay type: in vivo; settings: rats
Description: Compound C, i.e., N-acetyl-D, L-phenylglycine N-benzylamide was subjected to 5-day chronic treatment on anticonvulsant activity (maximal electroshock). 3 groups of 8 animals each were treated as follows. One group was given the MES ED50 of the test drug for 5 days; the second group was given the requisite volume of the vehicle (0.04 ml/10 g body wt.) for 4 days and a single dose (MES ED50) of the test drug on day 5; and the third group was given the requisite volume of the vehicle daily for 5 days. At the time of peak effect of the candidate substance on day 5, all groups were subjected to the MES test and the number of animals protected recorded. Seizure components of the unprotected animals were timed to the nearest 10th of a second and the extensor/flexor (E/F) ratio, S.E., and p value determined. Since extensor duration decreases and flexor duration increases as a maximal seizure is attenuated, the E/F ratio provides a measure of seizure severity.

liver microsomal system = test: 7-day liver microsomal studies; assay type: in vivo, rats; settings: rat, in vivo, 48 mg/kg
Description: Two of the three groups of animals subjected to the hexobarbital sleep time test (chronically treated and vehicle control groups) were continued on their respective original treatment regimen for two days (days 6 and 7) and 24 hours later (day 8) subjected to liver microsomal studies. The rats were decapitated and the livers perfused with 0.9% sodium chloride solution. The livers were removed, weighed, and homogenized in 0.25M sucrose. Microsomes were prepared and their drug metabolizing capabilities (microsomal protein yield; cytochrome P-450 concentration; p-nitroanisole O-demethylase and NADPH cytochrome c reductase activities; norbenzphetamine MI complex formation; and glucuronyl transferase, erythromycin demethylase, and ethylmorphine demethylase activities) measured (Arch. Biochem. Biophys. 143: 318-329, 1971).

[2] = motor impairment (ataxia, gait, stance) observation, rats (po); assay type: in vivo; settings: male, Sprague Dawley, in vivo, rat
Description: (§1) Compounds were screened for anticonvulsant activity in both male albino Carthworth Farms No. 1 mice (ip route) and male albino Sprague Dawley rats [oral (po) route]. Activity was established using the electrical (maximal electroshock or MES) test. In the MES test, a drop of electrolyte solution with anesthetic (0.5% butacaine hemisulfate in 0.9% sodium chloride) was used in the eyes of the animals prior to positioning the corneal electrodes and delivery of current. A 60 cycle alternating current was administered for 0.2 sec. in both species, 50 mA in mice and 150 mA in rats. Protection endpoints were defined as the abolition of the hind limb tonic extensor component of the induced seizure. In mice, effects of compounds on forced spontaneous motor activity were determined using the rotorod test. […] Normally under these conditions, mice maintain their balance almost indefinitely. In rats, motor impairment is assessed by observing for overt evidence of ataxia, abnormal gait and stance, and/or loss of placing response and muscle tone. In the mouse identification screening study all compounds were given at three dose levels (30, 100, 300 mg/kg) and two time periods (0.5 hours, 4 hours). Typically, in the MES seizures test one animal was tested at 30 mg/kg and 300 mg/kg, and three animals at 100 mg/kg. In the rotored toxicity test four animals were tested at 30 mg/kg, and 300 mg/kg, and eight animals at 100 mg/kg.
(§2) The quantitative determination of the median effective (ED50) and toxic doses (TD50) was conducted at previously calculated times of peak effect. Groups of at least eight animals were tested using different doses of test compound until at least two points wee determined between 100 and 0% protection and minimal motor impairment. The dose of candidate substance required to produce the defined end-point in 50% of the animals in each test and the 95% confidence interval was calculated.

liver = settings: rats, p.o., short term
motor impairment = motor impairment (ataxia, gait, stance) observation, rats (po); assay type: in vivo
Description: as §1, §2

| SMILES | tolerance to the anticonvulsant effects (MES Test) ([1]; 5 daily doses of 48 mg/kg) | animals protected, MES test ([1]; chronically treated group, 5 daily doses of 48 mg/kg) | animals protected, MES test ([1]; single dose acute control group, MES ED50 (48 mg/kg)) | NADPH cytochrome c reductase activity (liver microsomal system; Sprague Dawley, 7 days) [nmol/mg/min] | p-nitroanisole O-demethylase activity (liver microsomal system; Sprague Dawley, 7 days) [nmol/mg/min] | liver microsomal enzyme activity (liver microsomal system) | ED50 ([2]; oral (Table 6), read-out: RAT ED50 Neurotox) [mg/kg] | TD50 ([2]; po, at time of peak effect, read-out: tox, TD50) [mg/kg] | liver necrosis (liver; 3.9 or 100 mg/kg daily) | liability for serious drug-drug interactions and liver toxicity (battery of liver enzyme studies) (liver) | RAT ED50 Neurotox (motor impairment; oral (Table 6)) [mg/kg] | tox, TD50 (motor impairment; rat, po, at time of peak effect) |
| --- | --- | --- | --- | --- | --- | --- | --- | --- | --- | --- | --- | --- |
| CC(=O)NC(C)C(=O)NCc1ccccc1 (racemic) [compound 1, N-Acetyl-D,L-alanine-N′-benzylamide] | does not induce tolerance | 3/8 | 4/8 | 105.0 ± 4.1 | 0.62 ± 0.07 | unaltered | > 1000 | > 1000 |  |  |  |  |
| COC[C@@H](NC(C)=O)C(=O)NCc1ccccc1 [Ex. 1, 2, (R)-N-Benzyl-2-Acetamide-3-methoxypropionamide] |  |  |  |  |  |  |  |  | no evidence of causing liver necrosis | relatively low | >500 | >500 [0.5] mg/kg |
